Source: patent US9708258B2, “Indole 3-carbinol derivatives” (Cadila Pharmaceuticals Ltd, priority 2013, dated 2017)

Test system: Carrageenan acute paw edema in Wistar rats
Test: anti-inflammatory effect in the acute paw edema model (Carrageenan) in Wistar rats
Type: in vivo
Conditions: 50 mg/kg oral, basal = 100; for paw volume, Time 1 hr: 1 hr after carrageenan; for paw volume, Time 2 hr: 2 hr after carrageenan; for paw volume, Time 3 hr: 3 hr after carrageenan; for paw volume, Time 4 hr: 4 hr after carrageenan; for paw volume, Time 5 hr: 5 hr after carrageenan; for paw volume, Time 6 hr: 6 hr after carrageenan
Procedure: General Procedure for Screening:
Evaluated the anti-inflammatory effect of compounds of formula-I using acute paw edema model in Wistar rats using the following procedure.
All animals will be divided into required number of groups (n=6 per group; 8-12 weeks age) on the basis of body weight. After grouping basal paw volume of all animals will be measured with the help of plethysmometer instrument followed by drug administration by oral route. After 1 hr of dosing 100 μL of 1% Carrageenan prepared in normal saline will be administered in hind paw of all animals by S.C route. After 1 hr of carrageenan dosing paw volume of all animals will be measure up to 6 hr at each 1 hr interval.

Compound	paw volume, Time 1 hr	paw volume, Time 2 hr	paw volume, Time 3 hr	paw volume, Time 4 hr	paw volume, Time 5 hr	paw volume, Time 6 hr
CCCCC(=O)OCc1cn(C(=O)OC(C)(C)C)c2ccccc12 [CPL-2012-144, 3-Pentanoyloxymethyl-indole-1-carboxylic acid tert-butyl ester]	112.98	123.96	125.7	123.32	123.07	121.46
CCC(=O)OCc1cn(C(=O)OCc2ccccc2)c2ccccc12 [CPL-2013-158, 3-Propionyloxymethyl-indole-1-carboxylic acid benzyl ester]	113.82	115.12	112.02	112.46	108.11	107.2
CC(C)(C)OC(=O)n1cc(C(O)c2cc(F)c(F)cc2F)c2ccccc21 (stereo not drawn) [CPL-2013-156, 3-[Hydroxy-(2,4,5-trifluoro-phenyl)-methyl]indole-1-carboxylic acid tert-butyl ester]	115.2	113.62	116.25	115.73	113.69	111.56
CCC(=O)OCc1cn(C(=O)OC(C)(C)C)c2ccccc12 [CPL-2012-139, 3-Propionyloxymethyl-indole-1-carboxylic acid tert-butyl ester]	116.73	123.68	122.72	120.63	115.55	113.42
CC(C)(C)OC(=O)n1cc(COC(=O)CCC(=O)O)c2ccccc21 [CPL-2012-136, Succinic acid mono-(1-tert-butoxycarbonyl-1H-indol-3-ylmethyl) ester]	117.26	121.86	123.85	121.57	119.72	111.76
